Tested on: M600B cells
Assay: M600B cell growth inhibition (FIG. 4)
Format: cell-based
Conditions: M600B (human) cells
Protocol: NIH3T3 (mouse embryo) cells were obtained from the American Type Culture Collection and were grown in Dulbecco's modified Eagle's medium supplemented with 10% calf serum. M600B immortalized human mammary epithelial cells (Stampfer, M.R., 1985, J. Tissue Culture Methods 9:107-115) were, obtained from Dr. Martha Stampfer and were grown in supplemented HCDB 170 medium (Hammond, et al. (1984) Proc. Natl. Acad. Sci U.S.A. 81:5435-5439), as described previously (Stampfer, et al. (1985) Proc. Natl. Acad. Sci U.S.A. 82:2394-2398; Eldridge, et al. (1989) Cancer Res. 49:4326-4331).
All cells were maintained in 100-mm dishes at 37° C. in a humidified 5% CO2 atmosphere. Viable cells were distinguished from nonviable cells by counting azure II/methylene blue-stained colonies 10 days after the cells were plated at a density of 100 cells per dish. Trypan blue exclusion was measured by incubating cells for 1 min with one drop of trypan blue per 10 ml of cells. Viable (colorless) and nonviable (blue) cells were then counted on a hemocytometer.
We examined the effect of several of the terpenes on certain types of cell growth. […] Additionally, growth of HT29 (human colon adenocarcinoma) cells was inhibited by 80% by 1 mM perillyl alcohol.

## C=C(C)[C@@H]1CC=C(CO)CC1 [perillyl alcohol]
  inhibition of cell growth: significantly inhibited cell growth in a dose-dependent manner

From patent US5470877A, “Uses of perillic acid methyl ester” (Wisconsin Alumni Research Foundation, priority 1994, dated 1995)
